Among the data in ChEMBL document CHEMBL3588849, “New indole-isoxazolone derivatives: Synthesis, characterisation and in vitro SIRT1 inhibition studies” (Bioorg Med Chem Lett, 2015) are IC50, Activity and inhibition values, retold here.

The target in data set [1] is T1, NAD-dependent protein deacetylase sirtuin-1 (Homo sapiens, UniProt Q96EB6).
T1 sequence (Q96EB6 whole entry): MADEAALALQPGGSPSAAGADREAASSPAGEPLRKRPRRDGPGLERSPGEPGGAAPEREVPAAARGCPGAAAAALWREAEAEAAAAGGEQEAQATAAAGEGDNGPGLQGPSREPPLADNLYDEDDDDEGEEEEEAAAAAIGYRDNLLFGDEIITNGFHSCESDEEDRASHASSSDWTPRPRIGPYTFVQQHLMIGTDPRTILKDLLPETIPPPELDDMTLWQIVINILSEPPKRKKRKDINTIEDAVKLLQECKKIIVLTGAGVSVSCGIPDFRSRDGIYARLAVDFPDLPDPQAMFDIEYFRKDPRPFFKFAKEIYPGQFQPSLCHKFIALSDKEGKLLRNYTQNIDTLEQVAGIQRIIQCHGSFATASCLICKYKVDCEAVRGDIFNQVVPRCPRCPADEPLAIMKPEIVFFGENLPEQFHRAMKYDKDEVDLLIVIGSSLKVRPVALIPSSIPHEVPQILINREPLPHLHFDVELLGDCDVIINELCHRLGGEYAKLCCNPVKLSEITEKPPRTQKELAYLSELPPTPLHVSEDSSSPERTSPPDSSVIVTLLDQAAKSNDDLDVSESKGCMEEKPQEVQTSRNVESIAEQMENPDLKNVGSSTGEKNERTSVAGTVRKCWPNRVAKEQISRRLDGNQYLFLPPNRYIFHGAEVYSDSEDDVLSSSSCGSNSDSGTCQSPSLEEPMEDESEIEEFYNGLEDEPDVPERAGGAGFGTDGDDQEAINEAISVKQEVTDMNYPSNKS
Put plainly: Inhibition of SIRT1 (unknown origin) using AMC-Arg-His-Lys-Lys(Ac) substrate assessed as deacetylation of substrate by fluorimetric enzyme assay.

A further data set has as its system HEK293. Put plainly: (§1) Cytotoxicity against HEK293 cells after 72 hrs by MTT assay. Particulars: human, hek293, 72 h. The data set is classed as cell-based. A general note: Tetrazolium assays rely on reduction of a dye to a coloured formazan, in cell work by metabolically active cells.
The subject of a further data set is HT-29. Put plainly: Cytotoxicity against human HT-29 cells after 72 hrs by MTT assay. The data set is classed as functional, cell-based. Particulars: HT-29, 72 h.
The next data set relates to MDA-MB-231. Put plainly: Cytotoxicity against human MDA-MB-231 cells after 72 hrs by MTT assay. The data set is classed as functional, cell-based. Particulars: MDA-MB-231, 72 h.
For another data set, the system named is MCF7. Kind of data set: Cytotoxicity against human MCF7 cells after 72 hrs by MTT assay. The data set is classed as functional, cell-based. Particulars: MCF7, 72 h.
The nature of data set [2]: as §1. Type of data set: cell-based. Particulars: human, HEK293 cells; read-out: GI.

Each structure is given as a SMILES string.

One may read the IC50 as the midpoint of a concentration-inhibition curve. Turning to `CC1=NOC(=O)/C1=C/c1c(COCc2ccc(C(F)(F)F)cc2)n(C)c2ccc(F)cc12`, the IC50 in data set [1] worked out at 35.2 µM; in the data set with HT-29 it was 4.82 µM; with MDA-MB-231 it was 8.23 µM; in the data set on MCF7, 7.72 µM. Moreover, in the data set on HEK293, the Activity result is “Non-toxic”.

On to `Cn1c(COCc2ccc(C(F)(F)F)cc2)c(/C=C2/C(=O)ON=C2C(F)(F)F)c2cc(F)ccc21`, for which the IC50 in data set [1] amounted to 37.4 µM; in the data set on HT-29 it was 2.59 µM; with MDA-MB-231 it was 5.03 µM; with MCF7, 5.51 µM. For the same compound, the Activity result in the data set on HEK293 is “Non-toxic”.

As for `CC1=NOC(=O)/C1=C/c1c(C(=O)NCc2ccc(C)cc2)n(C)c2ccc(F)cc12`, the Activity result with HEK293 is given as “Non-toxic”.

For `CC1=NOC(=O)/C1=C/c1c(C(=O)NCc2ccc(OC(F)(F)F)cc2)n(C)c2ccc(F)cc12`, the Activity entry in the data set on HEK293 is on record as “Non-toxic”.

Take `CC1=NOC(=O)/C1=C/c1c(C(=O)Nc2ccc(OC(F)(F)F)cc2)n(C)c2ccc(F)cc12`: in the data set with HEK293, the Activity result is “Non-toxic”.

Take `CC1=NOC(=O)/C1=C/c1c(C(=O)NCc2ccc(F)cc2)n(C)c2ccc(F)cc12`: in the data set with HEK293, the Activity result is given as “Non-toxic”.

Turning to `Cn1c(C(=O)NCc2ccc(F)cc2)c(/C=C2/C(=O)ON=C2C(F)(F)F)c2cc(F)ccc21`, the Activity entry with HEK293 is recorded as “Non-toxic”.

With `CC1=NOC(=O)/C1=C/c1c(C(=O)N2CCOCC2)n(C)c2ccc(F)cc12`, the Activity entry in the data set with HEK293 is on record as “Non-toxic”.

In the case of `Cn1c(C(=O)N2CCOCC2)c(/C=C2/C(=O)ON=C2C(F)(F)F)c2cc(F)ccc21`, the Activity result in the data set with HEK293 is “Non-toxic”.

Take `CCN1CCN(C(=O)c2c(/C=C3/C(=O)ON=C3C)c3cc(F)ccc3n2C)CC1`: in the data set on HEK293, the Activity result is reported as “Non-toxic”.

For `CCN1CCN(C(=O)c2c(/C=C3/C(=O)ON=C3C(F)(F)F)c3cc(F)ccc3n2C)CC1`, the inhibition at 72 h in data set [2] worked out at 30%.

Consider `CC1=NOC(=O)/C1=C/c1c(COCc2cn(Cc3ccc(C(F)(F)F)cc3)nn2)n(C)c2ccc(F)cc12`, for which the inhibition at 72 h in data set [2] was determined as 30%.

Regarding `CC1=NOC(=O)/C1=C/c1c(COCc2cn(Cc3ccc(OC(F)(F)F)cc3)nn2)n(C)c2ccc(F)cc12`, the Activity result in the data set with HEK293 is recorded as “Non-toxic”.

For `Cn1c(COCc2cn(Cc3ccc(OC(F)(F)F)cc3)nn2)c(/C=C2/C(=O)ON=C2C(F)(F)F)c2cc(F)ccc21`, the Activity entry with HEK293 is reported as “Non-toxic”.

`Cn1c(COCc2cn(Cc3ccc([N+](=O)[O-])cc3)nn2)c(/C=C2/C(=O)ON=C2C(F)(F)F)c2cc(F)ccc21`: the Activity entry with HEK293 was “Non-toxic”.

With `CC1=NOC(=O)/C1=C/c1c(COCc2cn(Cc3ccc(C#N)cc3)nn2)n(C)c2ccc(F)cc12`, in the data set on HEK293, the Activity entry is given as “Non-toxic”.

As to `Cn1c(COCc2cn(Cc3ccc(C#N)cc3)nn2)c(/C=C2/C(=O)ON=C2C(F)(F)F)c2cc(F)ccc21`, the Activity entry in the data set on HEK293 is “Non-toxic”.

In the case of `CC1=NOC(=O)/C1=C/c1c(COCc2ccc(C#N)cc2)n(C)c2ccc(F)cc12`, the Activity entry in the data set on HEK293 was “Non-toxic”.

As for `Nc1ccn([C@@H]2O[C@H](CO)[C@@H](O)C2(F)F)c(=O)n1` [GEMCITABINE], the IC50 is 0.52 µM in the data set with HT-29, 0.65 µM with MDA-MB-231 and 0.15 µM in the data set on MCF7.
